# Publication PMC12480666, “A robust platform streamlining aromatic noncanonical amino acid biosynthesis and genetic code expansion in Escherichia coli” (Nature Communications, 2025)
# Biological target: T1, TyrB (aromatic amino acid aminotransferase) (Escherichia coli, UniProt P04693)
# T1 construct: recombinant, purified from E. coli
# T1 sequence (P04693 1-397): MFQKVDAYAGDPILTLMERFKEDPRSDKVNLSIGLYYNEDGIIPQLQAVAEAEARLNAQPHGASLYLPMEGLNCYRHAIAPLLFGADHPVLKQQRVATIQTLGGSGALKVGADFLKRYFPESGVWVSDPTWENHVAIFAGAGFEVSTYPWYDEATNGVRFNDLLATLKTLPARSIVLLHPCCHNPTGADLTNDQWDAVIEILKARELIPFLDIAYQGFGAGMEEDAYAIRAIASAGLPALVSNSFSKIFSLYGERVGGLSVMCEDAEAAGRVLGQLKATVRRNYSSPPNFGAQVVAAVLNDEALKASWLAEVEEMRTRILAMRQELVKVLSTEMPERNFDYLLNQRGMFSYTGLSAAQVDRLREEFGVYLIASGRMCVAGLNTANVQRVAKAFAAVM
# Assay: in vitro cascade of purified PpLTA, RpTD and TyrB
# Assay type: biochemical
# Settings: final transamination step
SMILES,"in vitro cascade of purified PpLTA, RpTD and TyrB (from 1 mM para-iodobenzaldehyde)","in vitro cascade of purified PpLTA, RpTD and TyrB (from 1 mM para-methylbenzaldehyde)"
"N[C@@H](Cc1ccc(I)cc1)C(=O)O [compound 19, p-iodophenylalanine]",the enzyme cascade efficiently converted the substrates into their corresponding amino acids,–
Cc1ccc(C[C@H](N)C(=O)O)cc1 [p-methylphenylalanine],–,the enzyme cascade efficiently converted the substrates into their corresponding amino acids
